Measurements taken from patent publication US9789117B2, “Use of sigma ligands in diabetes type-2 associated pain” (LABORATORIOS DEL DR. ESTEVE, S.A., priority 2011, dated 2017).
Entries after “also recorded” stand apart in the source; their conditions may differ. Counter-ions that a name gives are not always drawn.

Tests used:
Format in all cases: in vivo, rat
[1] = system: male ZDF (Zucker Diabetic Fatty) rats; assay: Plantar test (thermal hyperalgesia, withdrawal latency); conditions: for effect on thermal hyperalgesia (plantar test), acute treatment: single 64 mg/kg i.p., compared with week 7 baseline, 64 mg/kg
Experimental: (§1) The example 1 was dissolved in physiological saline (0.9%) and pH was corrected to 5 with NaOH. The compound was administered by the intraperitoneal (i.p.) route. The doses of drug employed in the present study were 64 mg/kg i.p. for acute administration and 25 mg/kg i.p. twice a day (BID) for the chronic treatment during 14 days. The compound and the saline (vehicle) adjusted at pH 5, were administered in a volume of 0.5 ml.
(§2) All experimental protocols were performed in strict accordance with the EC regulation for care and use of experimental animals (86/609/EEC). Studies were performed with male ZDF (Zucker Diabetic Fatty) rats (ZDF/Gmi, fa/fa) obtained from Charles Rivers Genetic Models Inc. 6 week old rats were housed in groups of two in standard transparent cages, under a 12 light-dark cycle, and animals were maintained on Purina 5008 (16.7 kcal % fat) diet and sterile tap water, available ad libitum. Nonfasting blood glucose levels and body weight were regularly monitored.
(§3) Acute example 1: animals received one injection (0.5 ml) of example 1 (64 mg/kg i.p.) 30 minutes before behavioral testing (n=8).
(§4) Chronic example 1: animals received one injection (0.5 ml) of example 1 (25 mg/kg BID, for 14 days) (n=8). Behavioral tests were performed once a week during the treatment, and one week after the last administration they were sacrificed and electrophysiological and cardiovascular experiments were carried out.
Thermal (heat) hyperalgesia (heat-nociception) was tested using a 37370 plantar test apparatus (Ugo Basile, Comerio VA, Italy). The withdrawal latency from a focused beam of radiant heat applied to the mid plantar surface of the hindpaws was recorded. The intensity of light was adjusted at the start of the experiment such that the control average baseline latencies were about 8 s and a cut-off latency of 30 s was imposed. The withdrawal latency of each paw was measured and the mean value was used for data analysis. The antihyperalgesic effect of the treatment was evidenced as an increase in the withdrawal latency respect to control baseline latencies.
Plantar test results are expressed as the percentage of the mean of thermal latency obtained from both hindpaws.
Data are expresses as mean+standard error mean (SEM). Statistical analysis of drug effects for significant differences between multiple groups were performed by analysis of variance (ANOVA), followed, when appropriate, by post-hoc Newman-Keuls test or Bonferroni Test. P<0.05 was considered as statistically significant.

[2] = system: male ZDF (Zucker Diabetic Fatty) rats; assay: Von Frey test (mechanical allodynia, pressure threshold)
Experimental: as §1, §2, §3, §4
Mechanical allodynia was assessed using an electronic Von Frey apparatus (EVF3, Bioseb, BP89, Chaville Cedez, France). Rats were placed individually on an elevated iron mesh floor, covered by a transparent plastic cage and were allowed to adapt to the testing environment for at least 15 minutes. The test was done by applying the von Frey filament through the mesh floor to the plantar surface of each hindpaw.
The test was performed three times with approximately 3 min interval between trials. The mean of the three trials was used for data analysis. […]
Von Frey test results are expressed as the percentage of the mean of mechanical threshold obtained from both hindpaws. […]

[3] = system: male ZDF (Zucker Diabetic Fatty) rats; assay: Spontaneous locomotor activity (photocell activity chambers)
Experimental: as §1
as §2, with “monitored. […]” for “monitored.”
it was evaluated using individual photocell activity chambers (Cibertec, Spain). Rats were placed in the recording chambers (55×40 cm, spacing between beams 3 cm) […] after drug administration, and the number of interruptions of photocell beams was recorded over a 30-min period.
Spontaneous locomotor activity is expressed as the percentage of the mean number of crossings of the photocell beams over 30 minutes. […]

Aδ-fibres of ZDF rats = assay: Skin-nerve preparation and electrophysiological recordings (saphenous nerve Aδ-fibres, mechanical stimulation) after chronic treatment
Experimental: as §4
3.2 Skin—Nerve Preparation and Electrophysiological Recordings
In order to minimize pain or discomfort, animals were killed by cervical dislocation. The saphenous nerve and its innervating territory on the hairy hindpaw skin were subcutaneously dissected and excised. […] Neuronal activity was recorded using gold-wire electrodes. Small filaments of the nerve were repeatedly split with sharpened forceps until a single unit activity could be recorded from them. […] Spikes were later analyzed offline using the SPIDI software.
Units were first identified by manual probing of the skin with a blunt glass rod that exerts a pressure of more than 500 mN to search for their receptive field (RF). […] In order to characterize the units, we assessed their conduction velocity (CV) by electrically stimulating the RF with supramaximal square-wave pulses (pulse width, 0.5 ms; train frequency, 0.2 Hz; variable intensity) with a Teflon-coated steel microneurography electrode (shaft diameter 1 mm, bare tip diameter 5-10 μm impedance 1-5 MΩ); an indifferent electrode was placed nearby in the organ bath. […]

[4] = ZDF rats, 25 mg/kg i.p. BID for 14 days (week 13 to 15)
[5] = chronic treatment 25 mg/kg for 14 days, twice a day

## Cc1cc(OCCN2CCOCC2)nn1-c1ccc2ccccc2c1 [Example 1, 4-{2-[5-methyl-1-(naphthalen-2-yl)-1H-pyrazol-3-yloxy]ethyl}morpholine hydrochloride]
[1]; ZDF rats aged 13 weeks, acute 64 mg/kg i.p., 30 minutes before test, mean±SEM, vehicle 12.6±6.9%
  increase of the latency to hindpaw withdrawal in response to thermal stimulation (plantar test): 25.5±9.1%
[1]; ZDF rats aged 13 weeks, hydrochloride
  effect on thermal hyperalgesia (plantar test), acute treatment: reversed thermal hyperalgesia
[1]; ZDF rats aged 13 weeks, listed as example 1, hydrochloride
  effect on thermal hyperalgesia (plantar test), acute treatment: restored baseline values; also recorded: reversed the changes in the thresholds
[1]; [4]
  effect on thermal hyperalgesia (plantar test), chronic treatment: completely reversed
[1]; [5]
  tolerance to the antihyperalgesic effect: No tolerance
[2]; ZDF rats aged 13 weeks, single 64 mg/kg i.p., compared with week 7 baseline, listed as example 1, hydrochloride, 64 mg/kg
  effect on mechanical allodynia (Von Frey test), acute treatment: restored baseline values; also recorded: the mechanical allodynia was reversed; also recorded: reversed the changes in the thresholds
[2]; [4]
  effect on mechanical allodynia (Von Frey test), chronic treatment: completely reversed
[2]; [5]
  tolerance to the antiallodynic effect: No tolerance
[3]; 25 mg/kg i.p. BID for 14 days, vs pretreatment values
  spontaneous locomotor activity, chronic treatment: no differences
[3]; single 64 mg/kg i.p.
  spontaneous locomotor activity, acute treatment: not significantly different
Aδ-fibres of ZDF rats; 25 mg/kg i.p. BID for 14 days, vs vehicle-treated ZDF rats
  threshold of response to the mechanical stimulation (electrophysiological recording): reduced the threshold
Aδ-fibres of ZDF rats; chronic treatment, conclusion
  hyperreactivity in response to mechanical stimulation in electrophysiological recordings (Aδ-fibres): reduction of the hyperreactivity
